Assay results published in US11426397B2, “Piperidinyl- and piperazinyl-substituted heteroaromatic carboxamides as modulators of GPR6” (TAKEDA PHARMACEUTICAL COMPANY LIMITED, priority 2017, dated 2022).

Target: T1, GPR6 receptor expressed in CHO-K1 cells (Homo sapiens, UniProt P46095)
T1 construct: expressed in transfected cells
Assay: In vitro inhibition of cAMP (EC50), cell-based HTRF cAMP assay
Conditions: inhibition of constitutive cAMP activity of GPR6 in CHO-K1 cells
Method: I. In Vitro Inhibition of cAMP (EC50)
This cell based assay measures the ability of test compounds to inhibit the constitutive cAMP activity of GPR6 receptor expressed in CHO-K1 cells. CHO cells are stably expressed with GPR6 receptor, whose expression is controlled by a tetracycline inducible element. The cells were cultured in medium containing F12K, 10% FBS, 1% Penn/Strep, 200 μg/mL Hygromycin. GPR6 receptor expression is induced for 20 hours with 2 μg/mL doxycycline (Sigma D9891) in growth media. After addition of doxycycline, the cells are plated at a density of 450-750 cells per well in 96-well half-volume black tissue culture plates (Costar) and placed in an incubator (37° C., 5% CO2) for 20 hours prior to cAMP assays.
Culture media is removed from the cells and they are washed with 50 μL/well of Ringer's Buffer (MgCl2 0.047 mg/mL, NaH2PO4 0.18 mg/mL, Na2HPO4 0.1 mg/mL, KCl 0.34 mg/mL, NaHCO3 1.26 mg/mL, D-glucose 1.8 mg/mL, NaCl 7 mg/mL; pH=7.4). The test compounds are suspended in DMSO, diluted in Ringer's Buffer containing 0.5% fatty acid free BSA plus 300 μM IBMX, and incubated on the cells for 45 minutes at 37° C. and 5% CO2. After incubation, the cells are conditioned for 10 minutes at room temp with Eu-cAMP tracer solution from a Perkin Elmer Lance HTRF Ultra cAMP assay kit (TRF0263). Then ULight™-anti-cAMP solution from the Lance HTRF kit is added and incubated on a shaker at room temp for 1 hour prior to HTRF detection in a Perkin Elmer Envision plate reader. EC50 curves are generated with a four-parameter logistic equation using GraphPad Prism 5.03.
Table 1 lists biological assay data (in vitro inhibition of cAMP) for some of the compounds shown in the examples, where larger pEC50 values represent higher activity or potency. All of the compounds shown in Table 1 were tested in accordance with a cell-based assay which measures the ability of test compounds to inhibit the constitutive cAMP activity of GPR6 receptor expressed in CHO-K1 cells (reported as pEC50). The assay is described in the specification under the heading “In vitro inhibition of cAMP (EC50).”

T1 sequence (P46095 whole entry): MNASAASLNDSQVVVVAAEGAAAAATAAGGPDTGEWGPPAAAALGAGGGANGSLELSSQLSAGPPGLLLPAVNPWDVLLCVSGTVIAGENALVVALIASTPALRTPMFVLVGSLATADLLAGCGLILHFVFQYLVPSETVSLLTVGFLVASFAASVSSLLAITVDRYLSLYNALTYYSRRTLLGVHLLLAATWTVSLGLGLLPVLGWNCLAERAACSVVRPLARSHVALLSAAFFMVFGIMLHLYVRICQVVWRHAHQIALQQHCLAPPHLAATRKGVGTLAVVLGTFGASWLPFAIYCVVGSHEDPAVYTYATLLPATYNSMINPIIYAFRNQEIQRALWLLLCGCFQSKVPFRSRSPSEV

| Structure (SMILES) | pEC50, in vitro inhibition of cAMP |
| --- | --- |
| COc1cc(Br)ccc1C(=O)Nc1cc(C#N)ccc1N1CCC(Oc2ccc(F)cc2F)CC1 [Example 226, 4-bromo-N-(5-cyano-2-(4-(2,4-difluorophenoxy)piperidin-1-yl)phenyl)-2-methoxybenzamide] | 7.0 |
| N#Cc1ccc(N2CCC(Oc3ccc(F)cc3F)CC2)c(NC(=O)c2cocn2)c1 [Example 122, N-(5-cyano-2-(4-(2,4-difluorophenoxy)piperidin-1-yl)phenyl)oxazole-4-carboxamide] | 6.1 |
| COc1nccc(Cl)c1C(=O)Nc1cc(C#N)ccc1N1CCC(Oc2ccc(F)cc2F)CC1 [Example 223, 4-chloro-N-(5-cyano-2-(4-(2,4-difluorophenoxy)piperidin-1-yl)phenyl)-2-methoxynicotinamide] | 5.6 |
| COc1ccc(F)cc1CN1CCN(c2ncc(C#N)cc2NC(=O)c2cn(C)nc2OC)CC1 [Example 161, N-(5-cyano-2-(4-(5-fluoro-2-methoxybenzyl)piperazin-1-yl)pyridin-3-yl)-3-methoxy-1-methyl-1H-pyrazole-4-carboxamide] | 6.5 |
| COc1cc(F)ccc1CN1CCN(c2ncc(C#N)cc2NC(=O)c2cn(C)nc2OC)CC1 [Example 155, N-(5-cyano-2-(4-(4-fluoro-2-methoxybenzyl)piperazin-1-yl)pyridin-3-yl)-3-methoxy-1-methyl-1H-pyrazole-4-carboxamide] | 6.3 |
| COc1ncccc1C(=O)Nc1cc(C#N)ccc1N1CCC(C(OC)c2ccc(F)cc2)CC1 (stereo not drawn) [Example 96, N-(5-cyano-2-(4-((4-fluorophenyl)(methoxy)methyl)piperidin-1-yl)phenyl)-2-methoxynicotinamide] | 6.5 |
| COc1ncccc1C(=O)Nc1cc(CO)cnc1N1CCC(Oc2ccc(F)cc2F)CC1 [Example 34, N-(2-(4-(2,4-difluorophenoxy)piperidin-1-yl)-5-(hydroxymethyl)pyridin-3-yl)-2-methoxynicotinamide] | 7.0 |
| COc1nn(C)cc1C(=O)Nc1cc(C#N)cnc1N1CCN(Cc2ccc(OC(F)F)cc2)CC1 [Example 162, N-(5-cyano-2-(4-(4-(difluoromethoxy)benzyl)piperazin-1-yl)pyridin-3-yl)-3-methoxy-1-methyl-1H-pyrazole-4-carboxamide] | 6.6 |
| COc1ncccc1C(=O)Nc1cnc(C(=O)NC(C)C)cc1N1CCC(Oc2ccc(F)cc2F)CC1 [Example 253, 4-(4-(2,4-difluorophenoxy)piperidin-1-yl)-N-isopropyl-5-(2-methoxynicotinamido)picolinamide] | 6.8 |
| COc1ncccc1C(=O)Nc1cc(C#N)c(C(=O)N(C)C)cc1N1CCC(Oc2ccc(F)cc2F)CC1 [Example 273] | 7.3 |
| COc1nn(C)cc1C(=O)Nc1cnc(C)cc1N1CCC(S(=O)(=O)c2ccc(F)cc2F)CC1 [Example 99, N-(4-(4-((2,4-difluorophenyl)sulfonyl)piperidin-1-yl)-6-methylpyridin-3-yl)-3-methoxy-1-methyl-1H-pyrazole-4-carboxamide] | 6.1 |
| Cc1cc(=O)c(C(=O)Nc2cc(C#N)ccc2N2CCC(Oc3ccc(F)cc3F)CC2)cn1C [Example 24, N-(5-cyano-2-(4-(2,4-difluorophenoxy)piperidin-1-yl)phenyl)-1,6-dimethyl-4-oxo-1,4-dihydropyridine-3-carboxamide] | 6.2 |
| N#Cc1ccc(N2CCC(Oc3ccc(F)cc3F)CC2)c(NC(=O)c2cnsn2)c1 [Example 134, N-(5-cyano-2-(4-(2,4-difluorophenoxy)piperidin-1-yl)phenyl)-1,2,5-thiadiazole-3-carboxamide] | 5.8 |
| COc1ccncc1C(=O)Nc1ccc(C#N)cc1N1CCC(Oc2ccc(F)cc2F)CC1 [Example 92, N-(4-cyano-2-(4-(2,4-difluorophenoxy)piperidin-1-yl)phenyl)-4-methoxynicotinamide] | 7.3 |
| COc1c(Cl)ccc(Cl)c1C(=O)Nc1cc(C#N)ccc1N1CCC(Oc2ccc(F)cc2F)CC1 [Example 206, 3,6-dichloro-N-(5-cyano-2-(4-(2,4-difluorophenoxy)piperidin-1-yl)phenyl)-2-methoxybenzamide] | 5.1 |
| COc1nccc(C(=O)Nc2cc(C#N)ccc2N2CCC(Oc3ccc(F)cc3F)CC2)n1 [Example 144] | 6.9 |
| COc1ncccc1C(=O)Nc1cc(C#N)nnc1N1CCC(Oc2ccc(F)cc2F)CC1 [Example 282, N-(6-cyano-3-(4-(2,4-difluorophenoxy)piperidin-1-yl)pyridazin-4-yl)-2-methoxynicotinamide] | 7.2 |
| COc1nn(C)cc1C(=O)Nc1cc(C#N)cnc1N1CCN(Cc2cccc(F)c2OC)CC1 [Example 160, N-(5-cyano-2-(4-(3-fluoro-2-methoxybenzyl)piperazin-1-yl)pyridin-3-yl)-3-methoxy-1-methyl-1H-pyrazole-4-carboxamide] | 6.5 |
| COc1ncc(F)cc1C(=O)Nc1cc(C#N)ccc1N1CCC(Oc2ccc(F)cc2F)CC1 [Example 224, N-(5-cyano-2-(4-(2,4-difluorophenoxy)piperidin-1-yl)phenyl)-5-fluoro-2-methoxynicotinamide] | 7.3 |
| COc1cccc(F)c1C(=O)Nc1cc(S(C)(=O)=O)ccc1N1CCC(Oc2ccc(F)cc2F)CC1 [Example 11] | 6.7 |
| COc1nn(C)cc1C(=O)Nc1cc(C#N)cnc1N1CCN(Cc2c(F)cc(Cl)cc2F)CC1 [Example 174, N-(2-(4-(4-chloro-2,6-difluorobenzyl)piperazin-1-yl)-5-cyanopyridin-3-yl)-3-methoxy-1-methyl-1H-pyrazole-4-carboxamide] | 7.1 |
| COc1cc(F)cc(CN2CCN(c3ncc(C#N)cc3NC(=O)c3cn(C)nc3OC)CC2)c1 [Example 159, N-(5-cyano-2-(4-(3-fluoro-5-methoxybenzyl)piperazin-1-yl)pyridin-3-yl)-3-methoxy-1-methyl-1H-pyrazole-4-carboxamide] | 6.0 |
| Cn1cccc(C(=O)Nc2cc(C#N)ccc2N2CCC(Oc3cccc(F)c3F)CC2)c1=O [Example 9, N-(5-cyano-2-(4-(2,3-difluorophenoxy)piperidin-1-yl)phenyl)-1-methyl-2-oxo-1,2-dihydropyridine-3-carboxamide] | 6.1 |
| Cc1cccnc1C(=O)Nc1cc(C#N)cnc1N1CCC(Oc2ccc(F)cc2F)CC1 [Example 59, N-(5-cyano-2-(4-(2,4-difluorophenoxy)piperidin-1-yl)pyridin-3-yl)-3-methylpicolinamide] | 7.3 |
| N#Cc1cnc(N2CCC(Oc3ccc(F)cc3F)CC2)c(NC(=O)c2cc(Cl)ccn2)c1 [Example 55, 4-chloro-V-(5-cyano-2-(4-(2,4-difluorophenoxy)piperidin-1-yl)pyridin-3-yl)picolinamide] | 7.3 |
| COc1ncccc1C(=O)Nc1cc(C(=O)N(C)C)ccc1N1CCC(Oc2ccc(F)cc2F)CC1 [Example 265] | 6.7 |
| COc1cc(F)c(F)cc1C(=O)Nc1cc(C#N)ccc1N1CCC(Oc2ccc(F)cc2F)CC1 [Example 229] | 7.3 |
